Source: patent publication US11203576B2, “Aurora kinase and Janus kinase inhibitors for prevention of graft versus host disease” (H. LEE MOFFITT CANCER CENTER AND RESEARCH INSTITUTE, INC., priority 2016, dated 2021)

Assays:
STAT3 (target of JAK2) = experiment: STAT3 phosphorylation in T-cells (flow cytometry); type: cell-based, human; conditions: in vitro, DC- or IL-6-stimulated, vs DMSO
Protocol: IL-6-induced pSTAT3 or IL-2-induced pSTAT5 (Y694) was measured by flow cytometry.

Bioavailability = conditions: in vivo
JAK2 = JAK2 (Homo sapiens, UniProt O60674); experiment: Kinase target screen, panel of 140 kinases; type: biochemical
Sequence of JAK2 (O60674 whole entry): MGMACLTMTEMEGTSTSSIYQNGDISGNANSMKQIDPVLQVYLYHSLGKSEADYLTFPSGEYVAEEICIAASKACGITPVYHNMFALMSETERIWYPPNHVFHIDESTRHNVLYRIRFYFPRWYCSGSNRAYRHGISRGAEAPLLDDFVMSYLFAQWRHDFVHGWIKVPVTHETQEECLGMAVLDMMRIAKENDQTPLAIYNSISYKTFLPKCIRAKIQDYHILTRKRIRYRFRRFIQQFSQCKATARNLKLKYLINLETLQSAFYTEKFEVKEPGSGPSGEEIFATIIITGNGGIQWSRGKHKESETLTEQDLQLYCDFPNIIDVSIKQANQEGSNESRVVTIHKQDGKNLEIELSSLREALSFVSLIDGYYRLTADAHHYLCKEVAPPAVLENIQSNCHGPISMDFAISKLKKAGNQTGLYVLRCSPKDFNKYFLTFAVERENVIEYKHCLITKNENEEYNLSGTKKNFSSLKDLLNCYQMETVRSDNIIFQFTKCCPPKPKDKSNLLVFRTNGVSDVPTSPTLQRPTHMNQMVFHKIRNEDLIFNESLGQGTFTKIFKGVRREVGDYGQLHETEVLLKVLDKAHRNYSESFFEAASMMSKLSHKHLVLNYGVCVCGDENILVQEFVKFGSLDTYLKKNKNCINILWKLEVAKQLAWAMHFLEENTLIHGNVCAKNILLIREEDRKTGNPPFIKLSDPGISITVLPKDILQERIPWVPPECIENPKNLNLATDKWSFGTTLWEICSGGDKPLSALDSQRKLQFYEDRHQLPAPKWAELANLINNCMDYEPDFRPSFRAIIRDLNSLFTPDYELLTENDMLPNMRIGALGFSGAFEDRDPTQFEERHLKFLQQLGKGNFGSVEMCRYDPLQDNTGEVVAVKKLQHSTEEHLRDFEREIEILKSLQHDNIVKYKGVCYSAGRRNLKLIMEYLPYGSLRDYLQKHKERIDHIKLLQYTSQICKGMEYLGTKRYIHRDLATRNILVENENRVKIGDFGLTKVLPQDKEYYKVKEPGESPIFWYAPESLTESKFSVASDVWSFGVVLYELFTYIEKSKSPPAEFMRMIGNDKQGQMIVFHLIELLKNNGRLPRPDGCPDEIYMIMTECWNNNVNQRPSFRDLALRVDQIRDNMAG
Protocol: (§1) Allogeneic mixed leukocyte reactions (alloMLRs) are standard assays used to assess human T cell proliferation against polyclonal or antigen-specific stimuli. In alloMLRs consisting of human T cells and allogeneicmonocyte-derived dendritic cells (DCs), the JAK2 inhibitor TG101348 reduced alloreactive T cell proliferation at concentrations of 350 nM and greater as previously reported (FIG. 9A). […] Synergistic suppression of T cells allostimulated by DCs was achieved when TG101348 and alisertib were added together at a ratio of 1:5, respectively, with a calculated combination index (CI) of <1 using the Chou-Talalay method (FIG. 9A). […] The chemical analogs AJI-214 and AJI-100 were designed and synthesized at the Moffitt Cancer Center and shown to inhibit Aurora kinase A and JAK2 with similar potency. […] Because AJI-100 is tolerated in mouse models, a kinase target screen was performed on AJI-100 to verify its activity against Aurora kinase A and JAK2 among a panel of 140 kinases.

[1] = test system: 5′ AMP activated protein kinase (AMPK); experiment: Kinase target screen, panel of 140 kinases; type: biochemical
Protocol: as §1

Aurora kinase B = Aurora kinase B (Homo sapiens, UniProt Q96GD4); experiment: Kinase target screen, panel of 140 kinases; type: biochemical; conditions: compared with alisertib
Sequence of Aurora kinase B (Q96GD4 whole entry): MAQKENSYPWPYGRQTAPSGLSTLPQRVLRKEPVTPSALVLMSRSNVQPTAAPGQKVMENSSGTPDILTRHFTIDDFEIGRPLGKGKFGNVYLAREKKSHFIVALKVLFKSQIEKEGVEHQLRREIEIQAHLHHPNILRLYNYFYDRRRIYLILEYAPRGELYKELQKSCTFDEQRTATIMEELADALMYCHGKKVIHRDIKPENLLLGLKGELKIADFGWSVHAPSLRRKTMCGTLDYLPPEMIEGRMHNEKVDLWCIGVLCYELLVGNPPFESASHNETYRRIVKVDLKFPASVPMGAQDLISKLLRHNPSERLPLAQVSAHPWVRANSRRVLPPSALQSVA
Protocol: as §1

Aurora kinase A = target: T1, Aurora kinase A (Homo sapiens, UniProt O14965); experiment: Kinase target screen, panel of 140 kinases; type: biochemical
T1 sequence (O14965 1-403): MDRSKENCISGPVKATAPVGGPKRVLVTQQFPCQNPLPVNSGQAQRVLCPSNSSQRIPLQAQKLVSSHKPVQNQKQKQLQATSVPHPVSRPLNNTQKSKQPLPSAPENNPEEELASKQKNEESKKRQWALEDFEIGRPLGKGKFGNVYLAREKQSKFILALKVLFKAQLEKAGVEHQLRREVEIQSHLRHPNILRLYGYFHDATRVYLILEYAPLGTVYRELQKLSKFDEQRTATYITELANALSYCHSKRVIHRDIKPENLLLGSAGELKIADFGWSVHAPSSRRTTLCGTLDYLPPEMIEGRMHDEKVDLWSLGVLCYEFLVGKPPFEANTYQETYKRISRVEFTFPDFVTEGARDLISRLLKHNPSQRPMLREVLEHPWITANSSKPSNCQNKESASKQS
Protocol: as §1

[2] = test system: xenogeneic GVHD (NSG mice transplanted with human PBMCs); experiment: Xenogeneic GVHD model; type: in vivo
Description: After transplantation and treatment with either AJI-100 or vehicle control, human T cells were isolated from recipient mouse spleens at day +14, stained for pH3Ser^10 or pSTAT3 (+IL-6 stimulation), and analyzed as described.
NOD scid gamma (NSG) mice (male or female, 6-24 weeks old) were purchased from Jackson Laboratory (Bar Harbor, Me., USA) and raised per an IACUC-approved protocol in adherence to the NIH Guide for the Care and Use of Laboratory Animals. Mice received either (i) alisertib (30 mg/kg daily), TG101348 (45 mg/kg twice a day), a combination of alisertib and TG101348, or vehicle (methylcellulose) by oral gavage or (ii) AJI-100 (50 mg/kg daily) or vehicle (50% polyethylene glycol, 15% 2-hydroxypropyl-b-cyclodextrin, and 10% DMSO in sterile saline) ip from day 0 to day +14.
Mice were monitored for GVHD clinical scores (K. R. Cooke et al., An experimental model of idiopathic pneumonia syndrome after bone marrow transplantation: I. The roles of minor H antigens and endotoxin. Blood 88, 3230 (1996)), weight, and premoribund status. As indicated, mice were euthanized on day +14 to study recipient spleen Tconv, Tregs, TH1, TH17, B cells, and T-cell signal transduction. Human CD4^+ Treg (CD25+, CD127^−, Foxp3^+), Tconv(CD25^+, CD127^+), TH1, TH17, and CD19^+ B cells residing in recipient spleens were quantified by flow cytometry. T-cell pH3 ser10 and PSTAT3 were evaluated by flow cytometry. IL-17 ELISPOTs were performed using isolated human T cells from recipient mouse spleen as described above. Tissue samples were prepared, stained (Ventana Medical Systems, Tucson, Ariz.), and imaged (Vista, Calif., USA) to identify human T-cells as previously described. All vertebrate animal work was IACUC-approved.

[3] = test system: human skin graft rejection by allogeneic PBMC; experiment: Human skin xenograft rejection in NSG mice; type: in vivo; conditions: 50 mg/kg daily i.p., + PBMCs, day +21
Protocol: Using the nondiagnostic mastectomy skin from consenting donors, a 1×1 cm skin graft was transplanted onto immunodeficient NSG mice dorsally. After 30 days of healing, 5×10^6 peripheral blood mononuclear cells (PBMC) from an HLA-disparate random donor was given by i.p. injection. A cohort of mice only received a skin graft without PBMCs, as negative rejection controls. The transplanted mice were treated with AJI-100 (50 mg/kg), a dual JAK2/Aurora A kinase inhibitor, or vehicle daily by i.p. injection. Mice were humanely euthanized on day +21 to assess human anti-human skin rejection pathology. […] Conversely, skin grafts from the mice who received Vehicle+PBMCs show diffuse lymphocytic infiltration of the dermis with exocytosis, a disrupted dermal-epidermal junction, and hyperkeratosis (grade III, FIG. 15B).

[4] = day +14, 50 mg/kg daily, vs vehicle

## NC(=O)c1ccc(Nc2ncc(F)c(Nc3ccccc3)n2)cc1 [bisanilinopyrimidine (II), 5-Fluoro-N4-phenyl-N2-[4-(4-carboxamide)phenyl]pyrimidine-2,4-diamine]
STAT3 (target of JAK2)
  STAT3 (pSTAT3 Y705) phosphorylation in T-cells: less STAT3 phosphorylation
STAT3 (target of JAK2); listed as AJI-100
  STAT3 (pSTAT3 Y705) phosphorylation in T-cells: reducing the phosphorylation
Bioavailability
  bioavailability: superior bioavailability
JAK2
  inhibition of JAK2 in kinase panel: among the top three kinases inhibited
[1]
  inhibition of AMPK: inhibits
Aurora kinase B
  ratio of Aurora kinase A to kinase B inhibition: greater than alisertib
  suppression of Aurora kinase B: slightly more potent suppression of Aurora kinase B than alisertib
Aurora kinase A
  inhibition of Aurora kinase A in kinase panel: among the top three kinases inhibited
[2]; 50 mg/kg daily i.p. day 0 to +14, 56 days of observation
  overall survival: 71.4%
[2]; AJI-100 50 mg/kg daily ip day 0 to +14, vs vehicle
  overall survival of the mice: significantly improved
[2]; [4]
  H3 ser10 phosphorylation in human T-cells harvested from mice: less H3 ser10 phosphorylation
  pSTAT3+ human T cells harvested from recipient spleens: significantly reduced
[2]; day +14, 50 mg/kg daily, vs vehicle, listed as AJI-100
  H3 ser10 phosphorylation in human T-cells harvested from mice: significantly reduced
[2]; day +14, vs vehicle
  GVHD severity (pathology) in liver and lung: significantly reduced
  Treg frequency in the liver: similar
  absolute number of Tregs in recipient spleens: significantly reduced
  absolute number of activated CD4+ Tconv in recipient spleens: significantly reduced
  absolute number of total CD4+ T cells in recipient spleens: significantly reduced
  absolute number of total spleen cells and human CD3+ T-cells in spleens: similar
  percentage of CD4+ alloreactive Tconv in the spleen: similar
  ratio of human Treg to CD4+ alloreactive/activated Tconv in recipient spleens: significantly increased
  relative amount of human Tregs in the spleen: significantly increased
  spleen-resident human TH1 T cells: significantly reduced
  spleen-resident human TH17 T cells: significantly reduced
  tissue-infiltrating human T cells in recipient liver (and lung): dramatically reduced
[2]; day +14, vs vehicle, listed as AJI-100
  tissue-infiltrating human T cells in recipient liver (and lung): significantly decreased
[2]; day +56
  surviving mice with limited fur/skin changes without significant weight loss: 60%
[2]; dosing day 0 to +14, vs vehicle
  onset and severity of GVHD: reduced the severity of GVHD
[2]; mouse, in vivo
  tolerability in mouse models: tolerated
[2]; surviving treated mice at day +56
  average GVHD clinical scores: < 2
[2]; vs vehicle
  CD8+ T cell and CD19+ B cell reconstitution (absolute numbers): suppressive effect
  frequencies of CD4+ and CD8+ T cells and CD19+ B cells: similar
[3]
  skin graft rejection grade (Bejarano scoring system): grade I
